Measurements taken from US20260007679A1, “METHODS OF TREATING CANCER USING 3-(4-((4-(MORPHOLINOMETHYL)BENZYL)OXY)-1-OXOISOINDOLIN-2-YL)PIPERIDINE-2,6-DIONE” (Celgene Corporation, priority 2012, published 2026).
Like-named read-outs stand apart in the source and are kept apart here.

Columns and labels:
[1] = system: normal donor peripheral blood mononuclear cells; assay: Immunoglobulin M and G production; assay type: cell-based; conditions: Homo sapiens, PBMC
Protocol: Immunoglobulin M and G (“IgG and IgM”) production was measured from normal donor peripheral blood mononuclear cells by culturing in the presence of the B cell differentiation factors recombinant human IL-2 (20U/mL), IL-10 (50 ng/mL), IL-15 (10 ng/mL), His-tagged CD40 Ligand (50 ng/mL), polyHistidine mouse IgG1 antibody (5 μg/mL), and ODN 2006-Human TLR9 ligand (10 μg/mL) for 4 days, followed by IL-2, IL-10, IL-15, and IL-6 (50 ng/mL) for an additional 3 days. IgM and IgG were measured by ELISA.

[2] = system: Revlimid-resistant NCI-H929 R3-10; assay: Proliferation and viability by 7-AAD staining; assay type: cell-based; conditions: Homo sapiens, NCI-H929, 120 h, read-out: IC50, proliferation
[3] = molecular target: T1, endogeneous human CRBN (U266 extract) (Homo sapiens, UniProt Q96SW2); assay: Thalidomide affinity bead competition assay; assay type: binding; conditions: 3 μM
T1 construct: endogenous in cells; host or cells: U266 human multiple myeloma cells (NP-40 lysate)
Protocol: Affinity beads coupled to a thalidomide acid analog were incubated with the U266 extracts and, after extensive washing of the beads, the bound proteins were eluted. CRBN binding to the thalidomide-coupled affinity beads was determined by quantitative CRBN immunoblot determination.

[4] = system: megakaryocyte progenitor cells (normal human bone marrows); assay: Megakaryocyte colony formation assay; assay type: cell-based; conditions: Homo sapiens, 14-16 days
Protocol: Colony formation assay was conducted with normal human bone marrows treated in semi-solid collagen matrix with compound/IL-3/IL-6/Tpo for 14-16 days, and the results are summarized in Table 7.

[5] = system: purified primary human T cells stimulated using immobilized anti-CD3 antibody; assay: T-cell costimulation, IL-2 production; assay type: cell-based
Protocol: CRBN ubiquitination was measured in HEK293T cells, which were transfected with an amino-terminal His-biotin-tagged CRBN construct, then preincubated with compounds for one hour followed by treatment with the MG132 proteasome inhibitor (to arrest degradation of ubiquitinated proteins). Cells were lysed and processed to measure CRBN ubiquitination by SDS-PAGE and immunoblot analysis using an anti-ubiquitin antibody. Cell proliferation studies were conducted in lenalidomide-sensitive and refractory multiple myeloma cells. […] T-cell costimulation was measured in purified primary human T cells stimulated using immobilized anti-CD3 antibody in cell culture for 2 days, and cytokine secretion was measured by ELISA.

[6] = system: Revlimid-resistant NCI-H929 R2-10; assay: Proliferation and viability by 7-AAD staining; assay type: cell-based; conditions: Homo sapiens, NCI-H929, 120 h, read-out: IC50, proliferation
[7] = system: NCI-H929 cells (Control, Revlimid-sensitive, parental); assay: Proliferation and viability by 7-AAD staining; assay type: cell-based; conditions: Homo sapiens, NCI-H929, 120 h, read-out: IC50, proliferation
[8] = system: Revlimid-resistant NCI-H929 R1-10; assay: Proliferation and viability by 7-AAD staining; assay type: cell-based; conditions: Homo sapiens, NCI-H929, 120 h, read-out: IC50, proliferation
[9] = system: Revlimid-resistant NCI-H929 R4-10; assay: Proliferation and viability by 7-AAD staining; assay type: cell-based; conditions: Homo sapiens, NCI-H929, 120 h, read-out: IC50, proliferation
[10] = system: DoHH2 Follicular Lymphoma xenograft; assay: DoHH2 Follicular Lymphoma xenograft model; assay type: in vivo, mouse
[11] = system: WSU-DLCL2 DLBCL xenograft; assay: WSU-DLCL2 DLBCL xenograft model
[12] = Bone Marrow ID 0090128, read-out: Immature Colony IC50
[13] = Bone Marrow ID 0090128, read-out: Intermediate Colony IC50
[14] = Bone Marrow ID 0090616, read-out: Immature Colony IC50
[15] = Bone Marrow ID 0090616, read-out: Intermediate Colony IC50
[16] = Bone Marrow ID 0090714, read-out: Immature Colony IC50
[17] = Bone Marrow ID 0090714, read-out: Intermediate Colony IC50
[18] = 30 mg/kg monotherapy, Compound I-S: 84% S-enantiomer, 16% R-enantiomer
[19] = 30 mg/kg with Rituxan 1 mg/kg, Compound I-S: 84% S-enantiomer, 16% R-enantiomer
[20] = 40 mg/kg monotherapy, Compound I-S: 91% S-enantiomer, 9% R-enantiomer

## Nc1cccc2c1C(=O)N(C1CCC(=O)NC1=O)C2=O (stereo not shown) [Pomalidomide, pomalidomide, reference compound]
[1]; read-out: IgG production IC50
  IC50: 0.063 µM
[1]; read-out: IgM production IC50
  IC50: 0.017 µM
[2]
  IC50: 6.3 µM
[3]
  less CRBN bound to the affinity beads: approximately 50%
[4]; [12]
  IC50: > 10 µM
[4]; [13]
  IC50: > 10 µM
[4]; [14]
  IC50: 0.35 µM
[4]; [15]
  IC50: 1.4 µM
[4]; [16]
  IC50: 1 µM
[4]; [17]
  IC50: > 10 µM
[5]
  EC50: 0.01 µM
[6]
  IC50: > 30 µM
[7]
  IC50: 0.09 µM
[8]
  IC50: > 30 µM
[9]
  IC50: 14 µM

## Nc1cccc2c1CN(C1CCC(=O)NC1=O)C2=O (stereo not shown) [Revlimid, lenalidomide, reference compound]
[4]; [12]
  IC50: 1.3 µM
[4]; [13]
  IC50: > 10 µM
[4]; [14]
  IC50: 0.56 µM
[4]; [15]
  IC50: 1.3 µM
[4]; [16]
  IC50: 0.41 µM
[4]; [17]
  IC50: > 10 µM
[10]; [18]
  % TGD ((T − C)/C): 12%
  % TGI at D12 (T/C): 19%
[10]; [19]
  % TGD ((T − C)/C): 52%
  % TGI at D12 (T/C): 54%
[10]; [20]
  % TGD ((T − C)/C): 17%
  % TGI at D12 (T/C): 49%
[11]; 30 mg/kg in combination with Rituxan 2 mg/kg iv qw
  Tumor Free Survival on Day 44: 6/9

## rituximab [Rituxan, reference compound]
[10]; 1 mg/kg monotherapy
  % TGD ((T − C)/C): 34%
  % TGI at D12 (T/C): 19%
[11]; Rituxan 2 mg/kg iv qw alone
  Tumor Free Survival on Day 44: 2/10
